Results published in ChEMBL document CHEMBL2074195, “The role of intestinal P-glycoprotein in the interaction of digoxin and rifampin” (J Clin Invest, 1999).

Target: ATP-dependent translocase ABCB1 (Homo sapiens, UniProt P08183)
Experiment: TP_TRANSPORTER: Western in vivo, quantitative immunohistochemistry
Assay type: functional, organism-based

Sequence of ATP-dependent translocase ABCB1 (P08183 whole entry): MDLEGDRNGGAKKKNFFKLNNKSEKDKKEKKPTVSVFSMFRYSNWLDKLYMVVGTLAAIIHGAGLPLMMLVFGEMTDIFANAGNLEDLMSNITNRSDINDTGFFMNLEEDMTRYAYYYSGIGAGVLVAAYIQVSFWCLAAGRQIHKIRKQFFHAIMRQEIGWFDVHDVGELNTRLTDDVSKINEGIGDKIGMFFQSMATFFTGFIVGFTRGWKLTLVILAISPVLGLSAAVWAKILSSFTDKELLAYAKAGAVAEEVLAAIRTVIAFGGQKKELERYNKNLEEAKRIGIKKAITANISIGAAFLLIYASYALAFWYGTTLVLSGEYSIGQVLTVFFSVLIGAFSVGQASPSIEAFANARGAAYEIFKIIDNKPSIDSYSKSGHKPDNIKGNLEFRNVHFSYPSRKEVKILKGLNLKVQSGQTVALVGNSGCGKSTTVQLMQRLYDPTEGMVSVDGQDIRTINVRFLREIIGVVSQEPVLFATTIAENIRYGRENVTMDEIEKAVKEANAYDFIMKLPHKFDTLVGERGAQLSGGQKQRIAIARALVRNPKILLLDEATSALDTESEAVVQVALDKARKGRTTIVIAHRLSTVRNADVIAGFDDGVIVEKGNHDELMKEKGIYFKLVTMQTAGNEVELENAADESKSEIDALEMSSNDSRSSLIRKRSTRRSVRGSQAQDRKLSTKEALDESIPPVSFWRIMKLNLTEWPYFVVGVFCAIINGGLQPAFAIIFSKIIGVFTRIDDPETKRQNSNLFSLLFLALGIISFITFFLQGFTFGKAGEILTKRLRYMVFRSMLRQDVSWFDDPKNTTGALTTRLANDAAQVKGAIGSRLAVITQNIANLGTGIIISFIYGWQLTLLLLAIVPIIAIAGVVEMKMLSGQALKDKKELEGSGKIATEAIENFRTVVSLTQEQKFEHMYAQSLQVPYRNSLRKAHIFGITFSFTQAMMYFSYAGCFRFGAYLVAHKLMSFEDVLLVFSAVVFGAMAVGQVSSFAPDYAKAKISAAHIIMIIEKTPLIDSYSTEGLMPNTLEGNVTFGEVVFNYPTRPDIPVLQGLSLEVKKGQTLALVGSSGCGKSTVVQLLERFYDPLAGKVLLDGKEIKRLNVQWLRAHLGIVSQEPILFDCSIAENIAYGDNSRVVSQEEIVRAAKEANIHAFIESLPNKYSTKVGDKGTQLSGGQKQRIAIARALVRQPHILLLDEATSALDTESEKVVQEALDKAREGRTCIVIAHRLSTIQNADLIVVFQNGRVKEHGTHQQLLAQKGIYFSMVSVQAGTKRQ

Activity: inducer [+]
Compound: CO[C@H]1/C=C/O[C@@]2(C)Oc3c(C)c(O)c4c(O)c(c(/C=N/N5CCN(C)CC5)c(O)c4c3C2=O)NC(=O)/C(C)=C\C=C\[C@H](C)[C@H](O)[C@@H](C)[C@@H](O)[C@@H](C)[C@H](OC(C)=O)[C@@H]1C [RIFAMPIN]
